Source: US9446122B2, “Use of GK-1 peptide expressed on M13 filamentous phage as pharmaceutical ingredient to enhance the efficiency of the immune response induced by vaccine or pathogen antigens” (UNIVERSIDAD NACIONAL AUTONOMA DE MEXICO, priority 2011, dated 2016)

Assays:
[1] = test system: immune response elicited by influenza vaccine; experiment: Serum IgG after subcutaneous immunization, FGK-1 versus synthetic GK-1 (Example 4); format: in vivo, female BALB/cAnN mice; conditions: younger mice
Method: The following treatment schedules were assessed for five-mouse groups:
(§1) Influenza vaccine was administered at a dose of 1 μg/mouse [A/New Caledonia/20/99(H1N1) strain, A/Panama/2007/99(H3N2) strain (analog to A/Moscow/10/99 strain), and B/Victoria/504/2000 strain (analog to B/Sichuan/379/99 strain)]. FLUZONE® vaccine for the flu season 2004-2005, containing 45 μg of hemagglutinin HA per 0.5 ml-dose, was used.
(§2) Synthetic GK-1 peptide was used at its optimal dose (Segura-Velźquez et al. 2006), in a 10 μg/mouse concentration.
Mice received a single dose of each immunogen by subcutaneous route at the tail base, and the induced response was evaluated in serum 21 days after immunization. Sera were obtained from peripheral blood, centrifuged at 5,000 rpm by 12 min, and aliquots were frozen until analysis.

[2] = test system: immune response elicited by intranasally administered influenza vaccine; experiment: Serum IgG after intranasal immunization, FGK-1 versus synthetic GK-1 (Example 5); format: in vivo, female BALB/cAnN mice
Method: The following treatment schedules were administered to five-mouse groups:
as §1, §2
Mice were administered intranasally one single dose of each immunogen, and the induced response was evaluated in serum and bronchoalveolar lavages in different times after immunization, namely 21 and 45 days. Sera were obtained from peripheral blood, centrifuged at 5,000 rpm by 12 min, and aliquots were frozen until analysis. Bronchoalveolar lavages were obtained by performing intratracheal lavages with 300 μl of saline solution 45 days after immunization.

## G-Y-Y-Y-P-S-D-P-N-T-F-Y-A-P-P-Y-S-A (GYYYPSDPNTFYAPPYSA) [synthetic GK-1 peptide, 18-amino acid peptide derived from a Taenia solium cysticerci cDNA library]
[1]; co-administered with influenza vaccine
  antibody levels versus vaccine alone: does not increase antibody levels
[1]; subcutaneous, 21 days
  antibody response versus influenza vaccine alone: slightly higher antibody response
[2]
  potentiation of influenza vaccine by intranasal administration: does not potentiate the vaccine
